Test system: multidrug-resistant (MDR) strains of Mycobacterium tuberculosis
Format: cell-based
Details: MDR-TB, drug resistance at least to isoniazid and rifampicin; REMA, Middlebrook 7H9 broth, 8 days at 37° C. plus overnight with resazurin

Structure (SMILES)	Anti-tubercular activity against Mycobacterium tuberculosis MDR (MIC)
CCOC(=O)C1=C(C)NC(Nc2ccc(Br)cc2C#N)=NC1c1ccc(F)cc1 (centres unmarked) [DHPM-KNV6, Ethyl 2-((4-bromo-2-cyanophenyl)amino)-4-(4-fluorophenyl)-6-methyl-1,4-dihydropyrimidine-5-carboxylate]	No activity
CCOC(=O)C1=C(C)NC(Nc2ccccc2I)=NC1c1ccc(F)cc1 (centres unmarked) [DHPM-KNV8, Ethyl 4-(4-fluorophenyl)-2-((2-iodophenyl)amino)-6-methyl-1,4-dihydropyrimidine-5-carboxylate]	No activity

Source: US11932609B1 (priority 2023, dated 2024)
